Assay results from patent US11833120B2, “Binding protein drug conjugates comprising anthracycline derivatives” (priority 2014, dated 2023).

Columns and labels:
[1] = system: ovarian (A2780) cancer cell line; settings: A2780, WO2012/073217; cited from earlier work
[2] = system: breast cancer (MCF7) cell line; settings: MCF7, WO2012/073217; cited from earlier work
[3] = system: L428, a Hodgkin's lymphoma cell line expressing low to moderate levels of CD30; test: In vitro cytotoxicity assay (CellTiter-Glo) on L428; format: cell-based, human; settings: CD30 LO L428 cells, 4 days, up to 20 μg/ml
Procedure: For this, cells were plated on 96-well plates in 100 μl RPMI/10% FCS at a density of 10^4 cells per well and grown at 37° C. in a humidified incubator at 5% CO2 atmosphere. After one day incubation, 25 μl medium was carefully removed from each well and replaced by 25 μl of 3.5-fold serial dilutions of each ADC in growth medium, resulting in final ADC concentrations ranging from 20 μg/ml to 0.25 ng/ml. Each dilution was done in duplicate. After 4 additional days, plates were removed from the incubator and equilibrated to room temperature. After approximately 30 minutes, 100 μl CellTiter-Glo® Luminescent Solution (Promega, Cat. No G7570) was added to each well and, after shaking the plates at 450 rpm for 5 min followed by a 10 min incubation without shaking, luminescence was measured on a Tecan Infinity F200 with an integration time of 1 second per well.
Cells were incubated with serial dilutions of ADCs for 4 days, after which CellTiter-Glo® Luminescent Solution (Promega) was added and viable cells were quantified by measuring the luminescence on a Tecan Infinity F200.

Compound	potency for in vitro cell killing [1]	potency for in vitro cell killing [2]	cell killing (in words) [3]
COc1cccc2c1C(=O)c1c(O)c3c(c(O)c1C2=O)C[C@@](O)(C(=O)CO)C[C@@H]3O[C@H]1C[C@H]2[C@H](O[C@@H]3[C@@H](OC)OCCN32)[C@H](C)O1 [PNU-159682]	pico- to femtomolar range	pico- to femtomolar range	
Adcetris			inefficient at killing
cAc10-PNU-EDA-Gly5			only at higher concentrations, similar to the control ADCs employed
